Paper PMC9364801, “APOBEC3 selects V179I in HIV-1 reverse transcriptase to provide selective advantage for non-nucleoside reverse transcriptase inhibitor-resistant mutants” (Frontiers in virology, 2022)

Legend:
Details in all cases: TZM-bl cells, MOI 0.02, 48 h; virus infectivity read-out; NNRTI pocket
[1] = target: T1, HIV-1 reverse transcriptase (RT), HIV-1NL4-3 (Human immunodeficiency virus type 1 (NEW YORK-5 ISOLATE), UniProt P12497); assay: single-cycle pseudovirus infection, luciferase; assay type: cell-based; set-up: gene gag-pol; mature RT p66/p51 heterodimer cut from Gag-Pol polyprotein; […]; tested in TZM-bl cells
[2] = target: T1, HIV-1 reverse transcriptase (RT), HIV-1NL4-3; set-up: gene gag-pol
[3] = target: T1, HIV-1 reverse transcriptase (RT), HIV-1NL4-3; assay: single-cycle pseudovirus infection, luciferase; assay type: cell-based; set-up: gene gag-pol; mature RT p66/p51 heterodimer cut from Gag-Pol polyprotein; […]; tested in TZM-bl cells; remark: listed apart in the source
[4] = target: T1, HIV-1 reverse transcriptase (RT), HIV-1NL4-3; assay: single-cycle pseudovirus infection, luciferase; assay type: cell-based; set-up: gene gag-pol; mature RT p66/p51 heterodimer cut from Gag-Pol polyprotein; […]; tested in TZM-bl cells; remark: listed apart in the source

## Cn1c(Cn2ccc(C(F)(F)F)c(Oc3cc(Cl)cc(C#N)c3)c2=O)n[nH]c1=O [DOR, doravirine]
[1]
  DOR EC50: 1.4 ± 0.28 nM

## O=C1Nc2ccc(Cl)cc2[C@@](C#CC2CC2)(C(F)(F)F)O1 [EFV, efavirenz]
[2]
  EFV EC50: 0.65 ± 0.30 nM

## Cc1cc(C)c(Nc2ccnc(Nc3ccc(C#N)cc3)n2)c(C)c1 [DAP, dapivirine]
[3]
  DAP EC50: 0.26 ± 0.13 nM

## Cc1cc(C#N)cc(C)c1Oc1nc(Nc2ccc(C#N)cc2)nc(N)c1Br [ETR, etravirine]
[4]
  ETR EC50: 0.83 ± 0.23 nM
